This is an account of results in patent US7265096B2 (XenoPort, Inc., priority 2002, dated 2007).

Series [1] relates to human ENT1, ENT2, CNT1 and CNT3. Particulars: literature (Mackey et al.; Fang et al.); cited from earlier work.
The conditions of series [2]: intravenous infusion for up to 12 hours; cited from earlier work.
Series [3] can be described thus: Pharmacokinetics and intestinal exposure to gemcitabine after oral dosing in mice. In kind it is in vivo. The settings on record: male, mouse, blood, po, 20 mg-eq. gemcitabine/kg; read-out: Fpo (oral bioavailability). On the procedure:
Blood samples (0.5 mL) were obtained by cardiac puncture from 4 animals at each time point (1, 5, 10, 15, 30, 45 minutes and 1, 2, 4, 6 and 24 hr post-dosing). Samples were immediately transferred to tubes containing 10 μL of tetrahydrouridine (50 μg/mL in 50% methanol/water) to prevent further deamination and aliquots (100 μL) were quenched with a solution of 1% w/w formic acid in acetonitrile (300 μL). Quenched blood samples were stored at −80° C. until analyzed. Following collection of blood samples, the small intestine of each animal was removed, rinsed with saline, scraped to remove the mucosal layer, and the mucosal tissue was transferred to a pre-weighed vial containing 10 μL of tetrahydrouridine (50 μg/mL in 50% methanol/water). Sample vials were snap frozen in dry ice/acetone and stored at −80° C. until analyzed. Mucosal tissue samples were diluted 1:10 in water and 100 μL of the resulting sample was added to 400 μL of methanol.

In series [4] the target is T1, CNT2 (Homo sapiens, UniProt O43868).
T1 sequence (O43868 1-658): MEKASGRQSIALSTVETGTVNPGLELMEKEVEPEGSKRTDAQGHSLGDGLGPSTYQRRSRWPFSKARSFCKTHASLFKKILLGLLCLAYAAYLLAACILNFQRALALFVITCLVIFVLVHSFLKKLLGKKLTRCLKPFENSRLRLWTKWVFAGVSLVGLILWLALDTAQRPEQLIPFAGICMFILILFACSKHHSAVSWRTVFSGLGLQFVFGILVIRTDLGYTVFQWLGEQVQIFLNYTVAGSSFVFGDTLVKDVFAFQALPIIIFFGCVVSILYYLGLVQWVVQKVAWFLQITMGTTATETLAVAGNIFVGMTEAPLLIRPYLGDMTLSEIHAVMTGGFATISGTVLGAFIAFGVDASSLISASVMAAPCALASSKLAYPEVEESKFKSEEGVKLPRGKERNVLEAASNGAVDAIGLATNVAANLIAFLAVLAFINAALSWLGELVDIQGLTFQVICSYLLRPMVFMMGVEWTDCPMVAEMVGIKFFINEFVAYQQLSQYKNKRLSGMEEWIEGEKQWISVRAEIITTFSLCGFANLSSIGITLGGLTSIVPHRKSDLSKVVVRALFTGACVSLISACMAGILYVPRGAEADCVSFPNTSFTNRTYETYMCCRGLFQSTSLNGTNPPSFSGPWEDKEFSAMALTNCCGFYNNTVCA
The settings on record: literature (Mackey et al.; Fang et al.); cited from earlier work.

A word on the bioavailability: it is the share of a dose that reaches the circulation, judged against a reference dose that is usually intravenous. In the case of `Nc1ccn([C@@H]2O[C@H](CO)[C@@H](O)C2(F)F)c(=O)n1` [gemcitabine, 2′,2′-difluoro-2′-deoxycytidine], in series [1], the “Transport by human ENT1, ENT2, CNT1 and CNT3” value is “transported by human ENT1, ENT2, CNT1 and CNT3”. In addition, the “Dose reported to be tolerated in patients” value in series [2] is 10 mg/m^2/min. In addition, the bioavailability in series [3] is 20%. For the same compound, the “Transport by CNT2” value in series [4] was “not the purine-selective concentrative transporter CNT2”.
